Reference: ChEMBL document CHEMBL4330117, “Synthesis, biological evaluation and molecular docking of benzimidazole grafted benzsulfamide-containing pyrazole ring derivatives as novel tubulin polymerization inhibitors” (Bioorg Med Chem, 2019)
Active and inactive are the calls of the source. The calls are words filed in the database; no cut-off is given here.

Experiments:
MCF7 = assay: Antiproliferative activity against human MCF7 cells after 24 hrs by MTT assay; format: functional, cell-based; conditions: MCF7, 24 h
[1] = Cytotoxicity against mouse primary hepatocytes after 24 hrs by MTT assay; format: cell-based, Hepatocyte
HepG2 = assay: Antiproliferative activity against human HepG2 cells after 24 hrs by MTT assay; format: functional, cell-based; conditions: HepG2, 24 h
[2] = Cytotoxicity against HEK293T cells after 24 hrs by MTT assay; format: cell-based, HEK-293T; conditions: human
HeLa = assay: Antiproliferative activity against human HeLa cells after 24 hrs by MTT assay; format: functional, cell-based
A549 = assay: Antiproliferative activity against human A549 cells after 24 hrs by MTT assay; format: functional, cell-based; conditions: A549, 24 h
Tubulin (Bos taurus) [3] = molecular target: T1, Tubulin (Bos taurus) (UniProt Q6B856+Q862L2+Q862F3); assay: Inhibition of vinblastine binding to bovine brain tubulin at 5 uM
Tubulin (Bos taurus) [4] = molecular target: T1, Tubulin (Bos taurus); assay: Inhibition of [3H]colchicine binding to bovine brain tubulin at 5 uM
Rattus norvegicus = assay: Antitumor activity against rat hepatoma H22 cells implanted in mouse assessed as reduction in tumor volume at 3 mg/kg, ip measured after 8 to 28 days; format: functional, organism-based
[5] = Toxicity in mouse xenografted with rat H22 cells assessed as weight loss at 3 mg/kg, ip measured after 28 days; format: organism-based; conditions: in vivo, 672 h

| Compound | IC50 (MCF7) | IC50 (HepG2) | IC50 (HeLa) | IC50 (A549) | inhibition (Tubulin (Bos taurus) [3]) | inhibition (Tubulin (Bos taurus) [4]) | CC50 at 24 h [1] | CC50 at 24 h [2] | Activity (Rattus norvegicus) | Activity [5] |
| --- | --- | --- | --- | --- | --- | --- | --- | --- | --- | --- |
| COc1cc2c(c(OC)c1OC)-c1ccc(OC)c(=O)cc1[C@@H](NC(C)=O)CC2 [COLCHICINE] | 0.44 µM | 0.42 µM | 0.36 µM | 0.22 µM | – | – | 153 µM | 129 µM | – | – |
| Cc1ccc(-c2nn(-c3ccccc3)cc2-c2nc3ccccc3n2S(=O)(=O)c2ccc(F)cc2)cc1 | 5.27 µM | 5.06 µM | 3.67 µM | 3.24 µM | 0.07% | 53% | 167 µM | 128 µM | – | – |
| Cc1ccc(-c2nn(-c3ccccc3)cc2-c2nc3ccccc3n2S(=O)(=O)c2ccc(Cl)cc2)cc1 | 5.93 µM | 5.52 µM | 4.06 µM | 3.55 µM | 0.24% | 38% | 216 µM | 167 µM | – | – |
| COc1ccc(/C=C\c2cc(OC)c(OC)c(OC)c2)cc1O [COMBRETASTATIN A4] | 0.18 µM | 0.33 µM | 0.24 µM | 0.16 µM | – | – | 178 µM | 162 µM | Active | Toxic |
| O=S(=O)(c1ccc(Cl)cc1)n1c(-c2cn(-c3ccccc3)nc2-c2ccc(F)cc2)nc2ccccc21 | 4.96 µM | 4.23 µM | 3.45 µM | 3.17 µM | -2.09 to 2.7% | 48% | 231 µM | 93.1 µM | – | – |
| O=S(=O)(c1ccc(Br)cc1)n1c(-c2cn(-c3ccccc3)nc2-c2ccc(C(F)(F)F)cc2)nc2ccccc21 | 2.47 µM | 2.16 µM | 1.86 µM | 1.69 µM | -0.07 to 2.1% | 52% | 167 µM | 185 µM | – | – |
| FC(F)(F)c1ccc(-c2nn(-c3ccccc3)cc2-c2nc3ccccc3[nH]2)cc1 | 6.33 µM | 6.03 µM | 4.67 µM | 3.62 µM | -0.03 to 2.1% | 44% | 159 µM | 167 µM | – | – |
| Cc1ccc(-c2nn(-c3ccccc3)cc2-c2nc3ccccc3n2S(=O)(=O)c2ccc(Br)cc2)cc1 | 3.16 µM | 3.04 µM | 2.34 µM | 1.86 µM | -0.38 to 1.4% | 48% | > 300 µM | 159 µM | – | – |
| O=S(=O)(c1ccc(F)cc1)n1c(-c2cn(-c3ccccc3)nc2-c2ccc(C(F)(F)F)cc2)nc2ccccc21 | 3.12 µM | 2.73 µM | 2.19 µM | 1.74 µM | 0.65% | 54% | 83.3 µM | 157 µM | – | – |
| O=S(=O)(c1ccc(Br)cc1)n1c(-c2cn(-c3ccccc3)nc2-c2ccc(F)cc2)nc2ccccc21 | 2.63 µM | 2.55 µM | 2.04 µM | 1.72 µM | 3.02% | 51% | > 300 µM | 239 µM | – | – |
| Cc1ccc(-c2nn(-c3ccccc3)cc2-c2nc3ccccc3[nH]2)cc1 | 7.26 µM | 6.26 µM | 4.95 µM | 4.01 µM | 0.05% | 40% | > 300 µM | 187 µM | – | – |
| O=S(=O)(c1ccc(Cl)cc1)n1c(-c2cn(-c3ccccc3)nc2-c2ccc(C(F)(F)F)cc2)nc2ccccc21 | 4.32 µM | 3.93 µM | 3.06 µM | 2.56 µM | 0.73% | 40% | 173 µM | 75.3 µM | – | – |
| O=S(=O)(c1ccc(F)cc1)n1c(-c2cn(-c3ccccc3)nc2-c2ccc(F)cc2)nc2ccccc21 | 3.67 µM | 3.52 µM | 2.44 µM | 2.37 µM | 1.32% | 48% | 174 µM | 218 µM | – | – |

The next lines start with results.

| IC50 (MCF7) | IC50 (HepG2) | IC50 (HeLa) | IC50 (A549) | inhibition (Tubulin (Bos taurus) [3]) | inhibition (Tubulin (Bos taurus) [4]) | Compound | CC50 at 24 h [1] | CC50 at 24 h [2] | Activity (Rattus norvegicus) | Activity [5] |
| --- | --- | --- | --- | --- | --- | --- | --- | --- | --- | --- |
| 0.51 µM | 0.46 µM | 0.37 µM | 0.27 µM | 0.07% | 82% | Cc1ccc(-c2nn(-c3ccccc3)cc2-c2nc3ccccc3n2S(=O)(=O)c2cc(C)ccc2C)cc1 | 231 µM | 82.2 µM | – | – |
| 2.34 µM | 1.93 µM | 1.52 µM | 1.46 µM | 0.21% | 55% | Cc1ccc(-c2nn(-c3ccccc3)cc2-c2nc3ccccc3n2S(=O)(=O)c2ccc(C(F)(F)F)cc2)cc1 | 89.3 µM | 182 µM | – | – |
| 0.83 µM | 0.96 µM | 0.82 µM | 0.76 µM | 0.21% | 74% | Cc1ccc(-c2nn(-c3ccccc3)cc2-c2nc3ccccc3n2S(=O)(=O)c2ccccc2)cc1 | 189 µM | 138 µM | – | – |
| 0.43 µM | 0.41 µM | 0.32 µM | 0.2 µM | 0.62% | 88% | Cc1ccc(C)c(S(=O)(=O)n2c(-c3cn(-c4ccccc4)nc3-c3ccc(F)cc3)nc3ccccc32)c1 | 122 µM | 54.2 µM | – | – |
| 0.42 µM | 0.37 µM | 0.25 µM | 0.17 µM | 0.03% | 85% | COc1ccc(S(=O)(=O)n2c(-c3cn(-c4ccccc4)nc3-c3ccc(C(F)(F)F)cc3)nc3ccccc32)cc1 | 87.4 µM | > 300 µM | – | – |
| 1.13 µM | 1.07 µM | 0.95 µM | 0.79 µM | 0.14% | 63% | O=[N+]([O-])c1ccc(S(=O)(=O)n2c(-c3cn(-c4ccccc4)nc3-c3ccc(C(F)(F)F)cc3)nc3ccccc32)cc1 | 178 µM | 163 µM | – | – |
| 0.57 µM | 0.52 µM | 0.48 µM | 0.46 µM | 0.18% | 66% | Cc1ccc(-c2nn(-c3ccccc3)cc2-c2nc3ccccc3n2S(=O)(=O)c2ccc(C)cc2)cc1 | 102 µM | 79.3 µM | – | – |
| 1.24 µM | 1.12 µM | 0.97 µM | 0.86 µM | 0.05% | 54% | O=S(=O)(c1ccc(C(F)(F)F)cc1)n1c(-c2cn(-c3ccccc3)nc2-c2ccc(C(F)(F)F)cc2)nc2ccccc21 | 137 µM | 63.2 µM | – | – |
| 1.58 µM | 1.68 µM | 1.43 µM | 1.28 µM | 0.51% | 50% | O=S(=O)(c1ccc(C(F)(F)F)cc1)n1c(-c2cn(-c3ccccc3)nc2-c2ccc(F)cc2)nc2ccccc21 | 55.3 µM | 241 µM | – | – |
| 0.69 µM | 0.72 µM | 0.68 µM | 0.55 µM | 0.05% | 62% | O=S(=O)(c1ccccc1)n1c(-c2cn(-c3ccccc3)nc2-c2ccc(F)cc2)nc2ccccc21 | 231 µM | 96.3 µM | – | – |
| 1.37 µM | 1.34 µM | 1.17 µM | 1.03 µM | -0.04 to 0.3% | 51% | O=[N+]([O-])c1ccc(S(=O)(=O)n2c(-c3cn(-c4ccccc4)nc3-c3ccc(F)cc3)nc3ccccc32)cc1 | > 300 µM | 189 µM | – | – |
| 0.63 µM | 0.59 µM | 0.56 µM | 0.48 µM | 0.52% | 61% | O=S(=O)(c1ccccc1)n1c(-c2cn(-c3ccccc3)nc2-c2ccc(C(F)(F)F)cc2)nc2ccccc21 | 186 µM | 128 µM | – | – |
| 0.53 µM | 0.47 µM | 0.39 µM | 0.35 µM | 2.98% | 77% | COc1ccc(S(=O)(=O)n2c(-c3cn(-c4ccccc4)nc3-c3ccc(F)cc3)nc3ccccc32)cc1 | 105 µM | 37.3 µM | – | – |
